According to US6737383B1, “Herbicidal oxadiazolidines” (priority 1999, dated 2004):

Legend:
[1] = tested on: sugar beet; test: Test B pre/postemergence sugar beet; type: in vivo, Beta vulgaris
Procedure, shortened: (§1)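 Test chemicals in a non-phytotoxic solvent mixture with surfactant were sprayed preemergence onto planted seeds and postemergence onto plants 2 to 18 cm tall (1- to 4-leaf stage). After twelve to sixteen days in a greenhouse, injury was visually rated against untreated controls from 0 (no effect) to 10 (complete control).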

[2] = tested on: crabgrass; test: Test B pre/postemergence crabgrass; type: in vivo, Digitaria sanguinalis
Procedure, shortened: as §1

[3] = tested on: surinam grass; test: Test B pre/postemergence surinam grass; type: in vivo, Brachiaria decumbens
Procedure, shortened: as §1

[4] = tested on: corn; test: Test B pre/postemergence corn; type: in vivo, Zea mays
Procedure, shortened: as §1

[5] = tested on: purple nutsedge; test: Test B pre/postemergence purple nutsedge; type: in vivo, Cyperus rotundus
Procedure, shortened: as §1

[6] = tested on: wild oat; test: Test B pre/postemergence wild oat; type: in vivo, Avena fatua
Procedure, shortened: as §1

[7] = tested on: cocklebur; test: Test B pre/postemergence cocklebur; type: in vivo, Xanthium strumarium
Procedure, shortened: as §1

[8] = tested on: rape; test: Test B pre/postemergence rape; type: in vivo, Brassica napus
Procedure, shortened: as §1

[9] = tested on: soybean; test: Test B pre/postemergence soybean; type: in vivo, Glycine max
Procedure, shortened: as §1

[10] = tested on: giant foxtail; test: Test B pre/postemergence giant foxtail; type: in vivo, Setaria faberii
Procedure, shortened: as §1

[11] = tested on: pigweed; test: Test B pre/postemergence pigweed; type: in vivo, Amaranthus retroflexus
Procedure, shortened: as §1

[12] = tested on: bedstraw; test: Test B pre/postemergence bedstraw; type: in vivo, Galium aparine
Procedure, shortened: as §1

[13] = tested on: blackgrass; test: Test B pre/postemergence blackgrass; type: in vivo, Alopecurus myosuroides
Procedure, shortened: as §1

[14] = tested on: wheat; test: Test B pre/postemergence wheat; type: in vivo, Triticum aestivum
Procedure, shortened: as §1

[15] = tested on: morningglory; test: Test B pre/postemergence morningglory; type: in vivo, Ipomoea hederacea
Procedure, shortened: as §1

[16] = tested on: velvetleaf; test: Test B pre/postemergence velvetleaf; type: in vivo, Abutilon theophrasti
Procedure, shortened: as §1

[17] = Postemergence, Rate 62 g/ha, scale of 0 to 10, 0 is no effect, 10 is complete control
[18] = Postemergence, Rate 125 g/ha, scale 0 to 10, 0 is no effect, 10 is complete control
[19] = Postemergence, Rate 500 g/ha, scale 0 to 10, 0 is no effect, 10 is complete control
[20] = Preemergence, Rate 62 g/ha, scale of 0 to 10 where 0 is no effect and 10 is complete control
[21] = Preemergence, Rate 125 g/ha, scale 0 to 10, 0 is no effect, 10 is complete control
[22] = Preemergence, Rate 500 g/ha, scale of 0 to 10 where 0 is no effect and 10 is complete control
[23] = Rate 250 g/ha, Postemergence, scale of 0 to 10 where 0 is no effect and 10 is complete control
[24] = Preemergence, Rate 500 g/ha, scale 0 to 10, 0 is no effect, 10 is complete control

CCOC(=O)C=C(Cn1c(=O)on(C(=O)N(c2ccc(F)cc2F)C(C)C)c1=O)OCC [Compound 519]
Sugarbeets plant response rating [1, 17]: 0 | Sugarbeets plant response rating [1, 18]: 0 | Plant response rating, Sugarbeets [1, 19]: 0 | Plant response rating, Sugarbeets [1, 20]: 0 | Sugarbeets plant response rating [1, 21]: 0 | Sugarbeets plant response rating (0 to 10 scale) ([1]; Preemergence, Rate 250 g/ha): 0 | Sugarbeets plant response rating [1, 22]: 0 | Plant response rating, Sugarbeets [1, 23]: 0 | Crabgrass plant response rating [2, 17]: 0 | Crabgrass plant response rating [2, 18]: 2 | Plant response rating, Crabgrass [2, 19]: 6 | Plant response rating, Crabgrass [2, 20]: 7 | Crabgrass plant response rating [2, 21]: 8 | Crabgrass plant response rating (0 to 10 scale) ([2]; Preemergence, Rate 250 g/ha): 10 | Crabgrass plant response rating [2, 22]: 10 | Plant response rating, Crabgrass [2, 23]: 6 | B. signalgrass plant response rating [3, 17]: 0 | B. signalgrass plant response rating [3, 18]: 0 | Plant response rating, B. signalgrass [3, 19]: 0 | Plant response rating, B. signalgrass [3, 20]: 0 | B. signalgrass plant response rating [3, 21]: 0 | B. signalgrass plant response rating (0 to 10 scale, 0 is no effect, 10 is complete control) ([3]; Preemergence, Rate 250 g/ha): 0 | B. signalgrass plant response rating [3, 24]: 0 | Plant response rating, B. signalgrass [3, 23]: 0 | Corn plant response rating [4, 17]: 0 | Corn plant response rating [4, 18]: 0 | Plant response rating, Corn [4, 19]: 0 | Plant response rating, Corn [4, 20]: 0 | Corn plant response rating [4, 21]: 0 | Corn plant response rating (0 to 10 scale) ([4]; Preemergence, Rate 250 g/ha): 0 | Corn plant response rating [4, 22]: 0 | Plant response rating, Corn [4, 23]: 0 | Nutsedge plant response rating [5, 18]: 0 | Plant response rating, Nutsedge [5, 19]: 0 | Plant response rating, Nutsedge [5, 20]: 0 | Nutsedge plant response rating [5, 21]: 0 | Nutsedge plant response rating [5, 22]: 0 | Wild oats plant response rating [6, 17]: 0 | Wild oats plant response rating [6, 18]: 0 | Plant response rating, Wild oats [6, 19]: 0 | Plant response rating, Wild oats [6, 20]: 0 | Wild oats plant response rating [6, 21]: 0 | Wild oats plant response rating (0 to 10 scale) ([6]; Preemergence, Rate 250 g/ha): 0 | Wild oats plant response rating [6, 22]: 0 | Plant response rating, Wild oats [6, 23]: 0 | Cocklebur plant response rating [7, 17]: 0 | Cocklebur plant response rating [7, 18]: 0 | Plant response rating, Cocklebur [7, 19]: 0 | Plant response rating, Cocklebur [7, 20]: 0 | Cocklebur plant response rating [7, 21]: 0 | Cocklebur plant response rating (0 to 10 scale) ([7]; Preemergence, Rate 250 g/ha): 0 | Cocklebur plant response rating [7, 22]: 0 | Plant response rating, Cocklebur [7, 23]: 0 | Rape plant response rating [8, 17]: 0 | Rape plant response rating [8, 18]: 0 | Plant response rating, Rape [8, 19]: 0 | Plant response rating, Rape [8, 20]: 0 | Rape plant response rating [8, 21]: 0 | Rape plant response rating (0 to 10 scale) ([8]; Preemergence, Rate 250 g/ha): 0 | Rape plant response rating [8, 22]: 0 | Plant response rating, Rape [8, 23]: 0 | Soybean plant response rating [9, 17]: 3 | Soybean plant response rating [9, 18]: 3 | Plant response rating, Soybean [9, 19]: 4 | Plant response rating, Soybean [9, 20]: 0 | Soybean plant response rating [9, 21]: 0 | Soybean plant response rating (0 to 10 scale) ([9]; Preemergence, Rate 250 g/ha): 0 | Soybean plant response rating [9, 22]: 0 | Plant response rating, Soybean [9, 23]: 4 | Giant foxtail plant response rating [10, 17]: 4 | Giant foxtail plant response rating [10, 18]: 4 | Plant response rating, Giant foxtail [10, 19]: 6 | Plant response rating, Giant foxtail [10, 20]: 10 | Giant foxtail plant response rating [10, 21]: 10 | Giant foxtail plant response rating (0 to 10 scale) ([10]; Preemergence, Rate 250 g/ha): 10 | Giant foxtail plant response rating [10, 22]: 10 | Plant response rating, Giant foxtail [10, 23]: 4 | Redroot pigweed plant response rating [11, 17]: 0 | Redroot pigweed plant response rating [11, 18]: 0 | Plant response rating, Redroot pigweed [11, 19]: 0 | Plant response rating, Redroot pigweed [11, 20]: 0 | Redroot pigweed plant response rating [11, 21]: 0 | Redroot pigweed plant response rating (0 to 10 scale) ([11]; Preemergence, Rate 250 g/ha): 0 | Redroot pigweed plant response rating [11, 22]: 0 | Plant response rating, Redroot pigweed [11, 23]: 0 | Bedstraw plant response rating [12, 17]: 0 | Plant response rating, Bedstraw [12, 19]: 0 | Plant response rating, Bedstraw [12, 20]: 0 | Bedstraw plant response rating [12, 21]: 0 | Bedstraw plant response rating (0 to 10 scale) ([12]; Preemergence, Rate 250 g/ha): 0 | Bedstraw plant response rating [12, 24]: 0 | Plant response rating, Bedstraw [12, 23]: 0 | Blackgrass plant response rating [13, 17]: 0 | Blackgrass plant response rating [13, 18]: 0 | Plant response rating, Blackgrass [13, 19]: 0 | Plant response rating, Blackgrass [13, 20]: 0 | Blackgrass plant response rating [13, 21]: 0 | Blackgrass plant response rating (0 to 10 scale) ([13]; Preemergence, Rate 250 g/ha): 4 | Blackgrass plant response rating [13, 22]: 4 | Plant response rating, Blackgrass [13, 23]: 0 | Wheat plant response rating [14, 17]: 0 | Wheat plant response rating [14, 18]: 0 | Plant response rating, Wheat [14, 19]: 0 | Plant response rating, Wheat [14, 20]: 0 | Wheat plant response rating [14, 21]: 0 | Wheat plant response rating (0 to 10 scale) ([14]; Preemergence, Rate 250 g/ha): 0 | Wheat plant response rating [14, 22]: 0 | Plant response rating, Wheat [14, 23]: 0 | Morningglory plant response rating [15, 17]: 0 | Morningglory plant response rating [15, 18]: 0 | Plant response rating, Morningglory [15, 19]: 0 | Plant response rating, Morningglory [15, 20]: 0 | Morningglory plant response rating [15, 21]: 0 | Morningglory plant response rating (0 to 10 scale) ([15]; Preemergence, Rate 250 g/ha): 0 | Morningglory plant response rating [15, 22]: 0 | Plant response rating, Morningglory [15, 23]: 0 | Velvetleaf plant response rating [16, 17]: 2 | Velvetleaf plant response rating [16, 18]: 2 | Plant response rating, Velvetleaf [16, 19]: 4 | Plant response rating, Velvetleaf [16, 20]: 0 | Velvetleaf plant response rating [16, 21]: 0 | Velvetleaf plant response rating (0 to 10 scale) ([16]; Preemergence, Rate 250 g/ha): 0 | Velvetleaf plant response rating [16, 22]: 0 | Plant response rating, Velvetleaf [16, 23]: 4
